In article PMC6704710, “Preclinical evaluation of 3D185, a novel potent inhibitor of FGFR1/2/3 and CSF-1R, in FGFR-dependent and macrophage-dominant cancer models” (Journal of Experimental & Clinical Cancer Research : CR, 2019):

Columns and labels:
Assay in all cases: Eurofins kinase panel
Assay type in all cases: biochemical
Settings in all cases: read-out: Inhibition rate (%)
[1] = target: T1, PKBγ(h) (Homo sapiens, UniProt Q9Y243)
T1 construct: purchased Eurofins (KinaseProfiler)
Procedure: (§1) Active FGFR1–4, VEGFR1, KDR, VEGFR3, PDGFRα and PDGFRβ proteins were purchased from Eurofins (Fremont, United States), and kinase activity was assessed using ELISA, as previously reported. […]. Increasing concentrations of ATP were diluted for the kinase reaction in the ATP competition assay. CSF-1R kinase activity was analyzed using the Z’-LYTE™ Kinase Assay Kit (Thermo Fisher, United States). The assay formats are described in the SelectScreen Kinase Profiling Service Zlyte protocol. IC50 values were calculated by dose-response curve fitting using Prism (Graph Pad).

[2] = target: T2, PKA(h) (Homo sapiens, UniProt P17612)
T2 construct: purchased Eurofins (KinaseProfiler)
Procedure: as §1

[3] = target: T3, PIP5K1γ(h) (Homo sapiens, UniProt O60331)
T3 construct: purchased Eurofins (KinaseProfiler)
Procedure: as §1

[4] = target: T4, PrKX(h) (Homo sapiens, UniProt P51817)
T4 construct: purchased Eurofins (KinaseProfiler)
T4 sequence (P51817 1-358): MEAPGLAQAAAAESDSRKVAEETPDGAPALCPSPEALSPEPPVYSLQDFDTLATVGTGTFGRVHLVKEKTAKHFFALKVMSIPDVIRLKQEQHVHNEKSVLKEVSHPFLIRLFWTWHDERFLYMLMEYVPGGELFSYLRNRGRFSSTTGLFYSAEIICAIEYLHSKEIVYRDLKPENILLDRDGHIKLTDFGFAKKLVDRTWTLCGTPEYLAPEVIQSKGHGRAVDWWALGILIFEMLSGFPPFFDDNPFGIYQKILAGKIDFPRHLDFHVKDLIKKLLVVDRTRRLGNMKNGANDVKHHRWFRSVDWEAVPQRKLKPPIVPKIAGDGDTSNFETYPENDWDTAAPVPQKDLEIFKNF
Procedure: as §1

[5] = target: T5, TLK1(h) (Homo sapiens, UniProt Q9UKI8)
T5 construct: purchased Eurofins (KinaseProfiler)
T5 sequence (Q9UKI8 1-766): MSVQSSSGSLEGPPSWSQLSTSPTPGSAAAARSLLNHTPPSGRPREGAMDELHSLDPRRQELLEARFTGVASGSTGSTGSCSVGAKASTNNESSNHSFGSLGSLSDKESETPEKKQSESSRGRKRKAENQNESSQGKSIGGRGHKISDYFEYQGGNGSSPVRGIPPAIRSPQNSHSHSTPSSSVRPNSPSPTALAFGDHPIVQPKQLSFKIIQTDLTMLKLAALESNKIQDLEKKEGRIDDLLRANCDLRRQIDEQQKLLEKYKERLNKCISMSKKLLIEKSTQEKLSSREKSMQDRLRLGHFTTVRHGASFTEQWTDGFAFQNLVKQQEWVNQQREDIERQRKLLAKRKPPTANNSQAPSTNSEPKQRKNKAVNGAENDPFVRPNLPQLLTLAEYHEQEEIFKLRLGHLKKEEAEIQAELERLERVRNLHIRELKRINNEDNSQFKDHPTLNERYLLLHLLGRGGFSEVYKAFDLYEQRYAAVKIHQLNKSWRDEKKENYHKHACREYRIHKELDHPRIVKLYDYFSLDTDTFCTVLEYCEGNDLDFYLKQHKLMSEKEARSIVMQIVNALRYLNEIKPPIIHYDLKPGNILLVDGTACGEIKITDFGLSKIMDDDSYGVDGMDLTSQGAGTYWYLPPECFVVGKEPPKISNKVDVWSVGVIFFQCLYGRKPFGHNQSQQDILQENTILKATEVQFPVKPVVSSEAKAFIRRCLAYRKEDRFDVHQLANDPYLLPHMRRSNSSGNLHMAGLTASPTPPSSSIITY
Procedure: as §1

[6] = target: T6, Plk1(h) (Homo sapiens, UniProt P53350)
T6 construct: purchased Eurofins (KinaseProfiler)
Procedure: as §1

[7] = target: T7, LRRK2(h) (Homo sapiens, UniProt Q5S007)
T7 construct: purchased Eurofins (KinaseProfiler)
Procedure: as §1

[8] = target: T8, Tie2(R849W)(h) (Homo sapiens, UniProt Q02763, R849W)
T8 construct: purchased Eurofins (KinaseProfiler)
Procedure: as §1

[9] = target: T9, IGF-1R(h), activated (Homo sapiens, UniProt P08069)
T9 construct: purchased Eurofins (KinaseProfiler)
Procedure: as §1

[10] = target: T10, MAPK1(h) (Homo sapiens, UniProt P27361)
T10 construct: purchased Eurofins (KinaseProfiler)
Procedure: as §1

[11] = target: T11, Src(T341M)(h) (Homo sapiens, UniProt P12931, T341M)
T11 construct: purchased Eurofins (KinaseProfiler)
Procedure: as §1

T6 sequence (P53350 whole entry): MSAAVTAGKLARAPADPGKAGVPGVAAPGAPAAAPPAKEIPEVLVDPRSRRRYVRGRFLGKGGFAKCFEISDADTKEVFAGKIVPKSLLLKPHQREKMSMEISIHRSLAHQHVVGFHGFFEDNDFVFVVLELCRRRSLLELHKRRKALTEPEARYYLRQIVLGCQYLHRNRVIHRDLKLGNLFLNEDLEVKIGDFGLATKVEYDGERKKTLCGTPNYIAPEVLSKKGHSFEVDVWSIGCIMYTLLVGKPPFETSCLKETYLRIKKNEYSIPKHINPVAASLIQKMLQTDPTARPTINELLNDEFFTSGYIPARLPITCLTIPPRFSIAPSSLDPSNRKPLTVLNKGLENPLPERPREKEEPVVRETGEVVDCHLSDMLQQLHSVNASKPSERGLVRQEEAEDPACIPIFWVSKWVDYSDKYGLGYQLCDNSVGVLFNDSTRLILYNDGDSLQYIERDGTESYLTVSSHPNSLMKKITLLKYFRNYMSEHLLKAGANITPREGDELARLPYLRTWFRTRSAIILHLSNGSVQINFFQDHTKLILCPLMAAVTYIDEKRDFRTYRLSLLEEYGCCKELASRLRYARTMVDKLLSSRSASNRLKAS
T1 sequence (Q9Y243 whole entry): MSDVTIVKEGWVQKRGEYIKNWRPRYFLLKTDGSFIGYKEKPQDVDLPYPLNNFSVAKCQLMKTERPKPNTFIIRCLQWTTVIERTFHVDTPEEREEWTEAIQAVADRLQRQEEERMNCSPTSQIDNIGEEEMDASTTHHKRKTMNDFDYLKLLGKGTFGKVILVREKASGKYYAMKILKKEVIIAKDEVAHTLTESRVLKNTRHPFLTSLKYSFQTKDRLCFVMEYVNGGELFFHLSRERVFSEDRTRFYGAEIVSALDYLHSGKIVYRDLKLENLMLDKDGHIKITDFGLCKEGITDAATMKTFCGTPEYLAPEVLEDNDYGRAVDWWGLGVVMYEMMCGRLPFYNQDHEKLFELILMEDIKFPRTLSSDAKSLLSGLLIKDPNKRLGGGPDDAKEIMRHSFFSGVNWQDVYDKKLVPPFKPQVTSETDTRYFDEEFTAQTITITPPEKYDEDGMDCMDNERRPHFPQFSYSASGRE
T9 sequence (P08069 31-1367): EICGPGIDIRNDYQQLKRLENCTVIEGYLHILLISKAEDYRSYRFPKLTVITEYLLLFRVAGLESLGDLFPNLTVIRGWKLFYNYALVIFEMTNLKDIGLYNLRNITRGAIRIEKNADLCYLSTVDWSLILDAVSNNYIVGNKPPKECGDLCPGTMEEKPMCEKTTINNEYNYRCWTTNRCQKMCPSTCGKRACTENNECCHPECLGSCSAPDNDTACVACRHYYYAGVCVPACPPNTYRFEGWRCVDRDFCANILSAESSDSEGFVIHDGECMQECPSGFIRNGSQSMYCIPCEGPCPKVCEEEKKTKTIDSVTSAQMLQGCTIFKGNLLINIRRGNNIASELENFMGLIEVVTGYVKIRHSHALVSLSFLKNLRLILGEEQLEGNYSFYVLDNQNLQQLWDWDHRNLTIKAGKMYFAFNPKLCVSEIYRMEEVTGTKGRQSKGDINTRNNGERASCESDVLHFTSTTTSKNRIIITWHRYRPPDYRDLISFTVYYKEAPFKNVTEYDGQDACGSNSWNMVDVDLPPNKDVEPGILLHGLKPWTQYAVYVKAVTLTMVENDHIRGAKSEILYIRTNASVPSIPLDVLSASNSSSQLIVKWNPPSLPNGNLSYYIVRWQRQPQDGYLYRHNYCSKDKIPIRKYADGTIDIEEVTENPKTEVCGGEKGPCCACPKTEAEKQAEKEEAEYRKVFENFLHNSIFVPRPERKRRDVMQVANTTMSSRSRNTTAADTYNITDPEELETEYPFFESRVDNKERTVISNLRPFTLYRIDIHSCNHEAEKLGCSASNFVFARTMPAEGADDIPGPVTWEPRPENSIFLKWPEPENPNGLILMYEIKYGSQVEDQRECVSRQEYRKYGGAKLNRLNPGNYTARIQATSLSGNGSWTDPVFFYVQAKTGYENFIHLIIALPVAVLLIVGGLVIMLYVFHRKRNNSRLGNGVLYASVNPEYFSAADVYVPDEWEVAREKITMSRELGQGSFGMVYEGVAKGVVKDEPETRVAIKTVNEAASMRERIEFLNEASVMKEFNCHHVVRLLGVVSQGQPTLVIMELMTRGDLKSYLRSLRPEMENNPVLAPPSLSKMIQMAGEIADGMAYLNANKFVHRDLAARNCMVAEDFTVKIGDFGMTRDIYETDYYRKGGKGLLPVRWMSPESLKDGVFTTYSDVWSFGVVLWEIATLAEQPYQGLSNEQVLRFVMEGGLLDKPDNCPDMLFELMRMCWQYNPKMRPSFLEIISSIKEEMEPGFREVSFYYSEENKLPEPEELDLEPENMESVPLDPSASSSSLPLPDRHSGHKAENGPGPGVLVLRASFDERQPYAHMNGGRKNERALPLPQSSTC
T8 sequence (Q02763 23-1124 R849W): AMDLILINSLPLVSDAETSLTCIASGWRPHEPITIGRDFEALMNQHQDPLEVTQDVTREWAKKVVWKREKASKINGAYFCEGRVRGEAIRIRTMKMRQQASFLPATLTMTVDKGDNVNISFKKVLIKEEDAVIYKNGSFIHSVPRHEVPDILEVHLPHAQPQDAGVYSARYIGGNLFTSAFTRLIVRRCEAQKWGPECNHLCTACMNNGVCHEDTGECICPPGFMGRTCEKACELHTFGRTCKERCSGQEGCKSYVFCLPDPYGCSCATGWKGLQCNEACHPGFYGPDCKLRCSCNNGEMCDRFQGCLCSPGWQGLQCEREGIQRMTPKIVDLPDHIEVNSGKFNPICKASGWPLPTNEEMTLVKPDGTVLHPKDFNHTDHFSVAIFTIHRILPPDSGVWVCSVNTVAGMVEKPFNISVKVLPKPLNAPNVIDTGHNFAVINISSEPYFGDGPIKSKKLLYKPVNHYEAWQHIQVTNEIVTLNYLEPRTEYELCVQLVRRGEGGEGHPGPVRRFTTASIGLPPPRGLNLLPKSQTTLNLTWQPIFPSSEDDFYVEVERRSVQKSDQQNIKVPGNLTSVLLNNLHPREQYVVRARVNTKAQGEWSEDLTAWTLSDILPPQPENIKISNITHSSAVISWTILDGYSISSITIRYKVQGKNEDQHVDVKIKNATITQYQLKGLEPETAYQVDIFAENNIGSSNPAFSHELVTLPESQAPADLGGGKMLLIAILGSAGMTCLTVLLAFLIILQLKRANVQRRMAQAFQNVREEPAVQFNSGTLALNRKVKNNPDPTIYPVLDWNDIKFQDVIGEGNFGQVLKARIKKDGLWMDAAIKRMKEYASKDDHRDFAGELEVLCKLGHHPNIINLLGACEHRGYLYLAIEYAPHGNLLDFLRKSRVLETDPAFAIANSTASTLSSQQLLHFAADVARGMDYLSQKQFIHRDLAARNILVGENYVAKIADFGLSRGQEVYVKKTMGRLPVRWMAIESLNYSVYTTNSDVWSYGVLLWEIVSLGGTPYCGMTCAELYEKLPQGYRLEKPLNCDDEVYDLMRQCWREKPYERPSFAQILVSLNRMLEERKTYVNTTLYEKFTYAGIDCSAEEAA
T3 sequence (O60331 whole entry): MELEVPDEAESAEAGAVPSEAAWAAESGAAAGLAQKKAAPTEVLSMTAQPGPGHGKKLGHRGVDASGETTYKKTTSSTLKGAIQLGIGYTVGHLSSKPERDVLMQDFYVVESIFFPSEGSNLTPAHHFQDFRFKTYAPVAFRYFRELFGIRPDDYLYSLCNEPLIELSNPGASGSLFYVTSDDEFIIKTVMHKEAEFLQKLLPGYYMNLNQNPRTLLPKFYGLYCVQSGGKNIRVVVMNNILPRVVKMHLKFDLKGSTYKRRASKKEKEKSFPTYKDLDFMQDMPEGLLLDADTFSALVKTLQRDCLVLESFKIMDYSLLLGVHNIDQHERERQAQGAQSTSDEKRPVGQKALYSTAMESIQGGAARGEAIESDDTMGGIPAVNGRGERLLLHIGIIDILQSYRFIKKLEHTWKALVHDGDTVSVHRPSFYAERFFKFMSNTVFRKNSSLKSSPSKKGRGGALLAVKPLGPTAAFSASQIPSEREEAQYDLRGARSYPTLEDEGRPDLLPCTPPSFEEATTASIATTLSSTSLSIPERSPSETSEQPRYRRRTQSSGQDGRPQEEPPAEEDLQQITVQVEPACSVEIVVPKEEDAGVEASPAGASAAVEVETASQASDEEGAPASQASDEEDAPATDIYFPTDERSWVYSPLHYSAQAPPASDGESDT
T10 sequence (P27361 whole entry): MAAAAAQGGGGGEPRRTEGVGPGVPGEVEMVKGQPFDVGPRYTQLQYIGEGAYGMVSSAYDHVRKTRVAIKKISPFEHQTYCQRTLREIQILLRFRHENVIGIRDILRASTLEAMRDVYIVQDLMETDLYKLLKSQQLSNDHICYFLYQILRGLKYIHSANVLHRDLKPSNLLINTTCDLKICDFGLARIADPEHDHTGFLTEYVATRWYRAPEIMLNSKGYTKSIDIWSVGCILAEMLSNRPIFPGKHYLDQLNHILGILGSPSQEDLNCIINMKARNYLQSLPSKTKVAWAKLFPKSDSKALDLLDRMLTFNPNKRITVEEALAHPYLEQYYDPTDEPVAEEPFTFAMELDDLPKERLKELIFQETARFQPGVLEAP

COc1cc(OC)c(Cl)c(-c2ccc3c(NC(=O)c4ccc(N5CCNC(C)(C)C5)cc4)n[nH]c3n2)c1Cl [3D185]
inhibition at 0.01 µM ([1]; 10 nM): 4% | inhibition at 0.1 µM ([1]; 100 nM): 12% | inhibition at 1 µM ([1]; 1000 nM): 20% | inhibition at 0.01 µM ([2]; 10 nM): 5% | inhibition at 0.1 µM ([2]; 100 nM): -8% | inhibition at 1 µM ([2]; 1000 nM): 5% | inhibition at 0.01 µM ([3]; 10 nM): 6% | inhibition at 0.1 µM ([3]; 100 nM): 6% | inhibition at 1 µM ([3]; 1000 nM): 10% | inhibition at 0.01 µM ([4]; 10 nM): 8% | inhibition at 0.1 µM ([4]; 100 nM): 11% | inhibition at 1 µM ([4]; 1000 nM): 5% | inhibition at 0.01 µM ([5]; 10 nM): -1% | inhibition at 0.1 µM ([5]; 100 nM): -4% | inhibition at 1 µM ([5]; 1000 nM): -8% | inhibition at 0.01 µM ([6]; 10 nM): -6% | inhibition at 0.1 µM ([6]; 100 nM): 2% | inhibition at 1 µM ([6]; 1000 nM): -4% | inhibition at 0.01 µM ([7]; 10 nM): -10% | inhibition at 0.1 µM ([7]; 100 nM): -3% | inhibition at 1 µM ([7]; 1000 nM): 21% | inhibition at 0.01 µM ([8]; 10 nM): -6% | inhibition at 0.1 µM ([8]; 100 nM): 39% | inhibition at 1 µM ([8]; 1000 nM): 86% | inhibition at 0.01 µM ([9]; 10 nM): -12% | inhibition at 0.1 µM ([9]; 100 nM): 6% | inhibition at 1 µM ([9]; 1000 nM): 49% | inhibition at 0.01 µM ([10]; 10 nM): -5% | inhibition at 0.1 µM ([10]; 100 nM): -6% | inhibition at 1 µM ([10]; 1000 nM): 0% | inhibition at 0.01 µM ([11]; 10 nM): 8% | inhibition at 0.1 µM ([11]; 100 nM): 33% | inhibition at 1 µM ([11]; 1000 nM): 88%
